From patent publication US20250270212A1, “CHIMERIC COMPOUNDS USEFUL IN TREATING DISEASES” (Padarn Therapeutics, Inc., priority 2021, published 2025)

Biological target: recombinant Wee1 protein (Homo sapiens (Human), UniProt P30291)
Assay: Wee1 enzymatic activity inhibition, ADP-Glo luminescence assay
Assay type: biochemical
Conditions: recombinant Wee1, PolyE4Y1 substrate, 1 h room temperature
Description: Example A. Primary Assay Used to Determine Potency of Wee1 Enzymatic Activity Inhibition
Compound activity was determined using recombinant Wee1 protein (BPS, Cat #40412) and PolyE4Y1 Substrate (Poly(Glu,Tyr) sodium salt, Sigma, Cat #P0275-25MG) in an in vitro enzymatic reaction. The enzymatic assay used to determine activity was a Luminescence assay using a Microplate Reader (BMG, ClarioStar Plus). The enzymatic reaction was carried out in assay buffer (40 mM TRIS-HCl pH 7.4-7.6, 20 mM MgCl2, 0.05 mM DTT, 0.1 mg/ml BSA, 5 mM MnCl2). The compounds were dispensed on a 384 well Diamond Well Plate (Axigen, Cat #P-384-120SQ-C-S) using the Biomek FX liquid handling system at 100× solutions of compounds in DMSO. 2×Wee1-PolyE4Y1 mix (final concentration 0.85 ng/μl of Wee1 and 0.2 μg/μl of PolyE4Y1) was prepared in 1× Assay buffer and 5.5 μl of mixture per well was added into 384w white Reaction plate with NBS (Corning, Cat #4513). 5.5 μl of PolyE4Y1 substrate w/o Wee1 in 1× buffer was used for negative control. Plates were centrifuged for 1 min at 100 g. Next step the Compounds were added to Reaction plate using Biomek station via following steps: 1 μl of 100× compounds (in DMSO) were mixed thoroughly with 49 μl of 2×10 μM ATP in Assay Buffer, then 5.5 μl of this mixture was added to Reaction plate with 5.5 μl of Wee1-PolyE4Y1 mix. Plates were centrifuged for 1 min at 100 g and incubated for 1 h at room temperature. Next 3 μL of ADP-Glo reagent (Promega, ADP-Glo™ Kinase Assay, Cat #V9102) per well was added. Plates were incubated for 30 minutes at room temperature. Then 6 μL of Kinase detection reagent (Promega, ADP-Glo™ Kinase Assay, Cat #V9102) per well was added and the Luminescence was measured using Microplate Reader. The % inhibition was then used to calculate the IC50 values. The IC50 values are shown in Table A, wherein “A” corresponds to IC50<0.01 μM, “B” corresponds to 0.01 μM≤IC50<0.1 μM, “C” 0.1 μM≤IC50<1 μM, and “D” corresponds to […].

recombinant Wee1 protein, sequence (P30291 whole entry): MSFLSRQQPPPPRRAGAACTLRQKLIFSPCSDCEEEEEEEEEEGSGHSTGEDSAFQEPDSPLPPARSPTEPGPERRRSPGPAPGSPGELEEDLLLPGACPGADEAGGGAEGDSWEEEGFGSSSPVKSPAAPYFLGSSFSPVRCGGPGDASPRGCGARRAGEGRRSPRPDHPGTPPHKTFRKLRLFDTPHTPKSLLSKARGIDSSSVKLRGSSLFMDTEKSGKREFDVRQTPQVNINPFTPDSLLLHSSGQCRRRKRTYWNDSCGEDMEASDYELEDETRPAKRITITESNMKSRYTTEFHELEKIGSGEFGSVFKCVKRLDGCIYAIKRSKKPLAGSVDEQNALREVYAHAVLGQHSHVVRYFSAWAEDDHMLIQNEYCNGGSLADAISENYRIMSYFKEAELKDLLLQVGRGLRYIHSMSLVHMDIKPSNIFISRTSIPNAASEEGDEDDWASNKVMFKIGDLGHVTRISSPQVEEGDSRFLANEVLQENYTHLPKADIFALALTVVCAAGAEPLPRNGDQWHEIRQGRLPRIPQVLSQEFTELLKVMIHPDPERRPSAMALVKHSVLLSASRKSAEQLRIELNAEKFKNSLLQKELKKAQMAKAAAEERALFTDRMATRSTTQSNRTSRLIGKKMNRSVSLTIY

Row | EC50 | Compound
1 | 10 to 100 nM | Cn1c(=O)c2cnc(Nc3ccc(N4CCC(n5cc6cccc(C(N)=O)c6n5)CC4)cc3)nc2n1-c1ccccn1 [Compound 83]
2 | ≥ 1 nM | C=CCn1c(=O)c2cnc(N3CCN(Cc4ccc(-c5[nH]c6cc(F)cc7c6c5CCNC7=O)cc4)CC3)nc2n1-c1cccc(C(C)(C)O)n1 [Compound 44, 2-{4-[(4-{2-Allyl-1-[6-(1-hydroxy-1-methylethyl)pyridin-2-yl]-3-oxo-2,3-dihydro-1H-pyrazolo[3,4-d]pyrimidin-6-yl}piperazin-1-yl)methyl]phenyl}-8-fluoro-1,3,4,5-tetrahydro-6H-azepino[5,4,3-cd]indol-6-one]
3 | 10 to 100 nM | Cn1c(=O)c2cnc(Nc3ccc(N4CCN(Cc5ccc(-c6[nH]c7cc(F)cc8c7c6CCNC8=O)cc5)CC4)cc3)nc2n1-c1cccc(C(C)(C)O)n1 [Compound 40, 8-Fluoro-2-[4-({4-[4-({1-[6-(1-hydroxy-1-methylethyl)pyridin-2-yl]-2-methyl-3-oxo-2,3-dihydro-1H-pyrazolo[3,4-d]pyrimidin-6-yl}amino)phenyl]piperazin-1-yl}methyl)phenyl]-1,3,4,5-tetrahydro-6H-azepino[5,4,3-cd]indol-6-one]

Biological target: recombinant PARP1 (AA662-1014) protein (Homo sapiens (Human), UniProt P09874)
Sequence (P09874 662-1014): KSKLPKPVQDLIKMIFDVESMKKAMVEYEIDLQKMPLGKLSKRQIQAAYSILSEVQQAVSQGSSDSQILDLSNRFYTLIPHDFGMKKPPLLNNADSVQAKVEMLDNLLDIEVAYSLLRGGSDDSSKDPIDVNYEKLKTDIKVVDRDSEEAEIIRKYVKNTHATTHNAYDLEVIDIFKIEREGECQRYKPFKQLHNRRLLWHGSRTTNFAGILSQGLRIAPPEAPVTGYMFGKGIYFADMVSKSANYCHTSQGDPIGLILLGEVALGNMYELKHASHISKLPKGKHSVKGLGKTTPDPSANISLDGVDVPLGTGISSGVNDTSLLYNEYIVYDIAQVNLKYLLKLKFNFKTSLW
Assay: Tracer displacement fluorescence polarization assay
Conditions: displacement of AlexaFluor488 tracer from NAD+-binding site, PARP1 25 nM
Description: Example B. Tracer Displacement Fluorescence Polarization Assays
Displacement of AlexaFlour488 marked tracer from the NAD+-binding site of recombinant PARP1 (AA662-1014) protein (OriGene, Cat #: AR09368PU-L) was measured in vitro using Fluorescence polarization assay. The reaction was carried out in assay buffer (50 mM TRIS-HCl pH 7.4-7.8, 150 mM NaCl, 10 mM MgCl2, 0.001% Triton-X). 2×PARP1 (final concentration 25 nM) was diluted in 1× Assay buffer and 10 μl of the solution per well was added into 384-well Black Non-Treated Reaction plate (Corning, Cat #4511). Plates were centrifuged for 1 min at 200 g. The compounds were prepared in a 384-well Diamond Well Plate (Axygen, Cat #P-384-120SQ-C-S) as 400× solutions in DMSO and were transferred into Reaction plate using the Biomek FX liquid handling system with intermediate dilution down to 10× working solution in assay buffer in a separate 384-well Diamond Well Plate (Axygen, Cat #P-384-120SQ-C-S) (2 μl per well). Plates were centrifuged for 1 min at 200 g and incubated for 15 min at room temperature in the dark. Then 8 μL per well of 2.5× Tracer AlexaFluor488 (final concentration 1 nM) diluted in 1× Assay buffer was added into Reaction plate. 1× Assay buffer was used to make blank samples for instrument calculations. Plates were incubated for 30 minutes at room temperature in the dark. Fluorescence polarization was measured using Microplate Reader (BMG, ClarioStar Plus). The % tracer displacement was used to calculate the IC50 values. The IC50 values are shown in Table A, wherein “A” corresponds to IC50<0.01 μM, “B” corresponds to 0.01 μM≤IC50<0.1 μM, “C” 0.1 μM≤IC50<[…], and “D” corresponds to […].

Row | Compound | EC50
4 | Cn1c(=O)c2cnc(Nc3ccc(N4CCC(n5cc6cccc(C(N)=O)c6n5)CC4)cc3)nc2n1-c1ccccn1 [Compound 83] | 10 to 100 nM
5 | Cn1c(=O)c2cnc(Nc3ccc(N4CCN(Cc5ccc(-c6[nH]c7cc(F)cc8c7c6CCNC8=O)cc5)CC4)cc3)nc2n1-c1cccc(C(C)(C)O)n1 [Compound 40, 8-Fluoro-2-[4-({4-[4-({1-[6-(1-hydroxy-1-methylethyl)pyridin-2-yl]-2-methyl-3-oxo-2,3-dihydro-1H-pyrazolo[3,4-d]pyrimidin-6-yl}amino)phenyl]piperazin-1-yl}methyl)phenyl]-1,3,4,5-tetrahydro-6H-azepino[5,4,3-cd]indol-6-one] | 10 to 100 nM
6 | Cn1c(=O)c2cnc(Nc3ccc(N4CCN(Cc5cc(Cc6n[nH]c(=O)c7ccccc67)ccc5F)CC4)cc3)nc2n1-c1cccc(C(C)(C)O)n1 [Compound 8, 4-[4-Fluoro-3-({4-[4-({1-[6-(1-hydroxy-1-methylethyl)pyridin-2-yl]-2-methyl-3-oxo-2,3-dihydro-1H-pyrazolo[3,4-d]pyrimidin-6-yl}amino)phenyl]piperazin-1-yl}methyl)benzyl]phthalazin-1(2H)-one] | 100 to 1000 nM
7 | C=CCn1c(=O)c2cnc(NC3CCN(C(=O)c4cc(Cc5n[nH]c(=O)c6ccccc56)ccc4F)CC3)nc2n1-c1cccc(C(C)(C)O)n1 [Compound 4, 4-(3-{[4-({2-Allyl-1-[6-(1-hydroxy-1-methylethyl)pyridin-2-yl]-3-oxo-2,3-dihydro-1H-pyrazolo[3,4-d]pyrimidin-6-yl}amino)piperidin-1-yl]carbonyl}-4-fluorobenzyl)phthalazin-1(2H)-one] | 100 to 1000 nM
8 | Cn1c(=O)c2cnc(N3CCN(C(=O)c4cc(Cc5n[nH]c(=O)c6ccccc56)ccc4F)CC3)nc2n1-c1ccccn1 [Compound 5, 4-(4-Fluoro-3-{[4-(2-methyl-3-oxo-1-pyridin-2-yl-2,3-dihydro-1H-pyrazolo[3,4-d]pyrimidin-6-yl)piperazin-1-yl]carbonyl}benzyl)phthalazin-1(21)-one] | 10 to 100 nM
9 | C=CCn1c(=O)c2cnc(Nc3ccc(N4CCN(Cc5cc(Cn6c(=O)[nH]c(=O)c7c(F)cccc76)ccc5F)CC4)cc3)nc2n1-c1cccc(C(C)(C)O)n1 [Compound 34, 1-[3-({4-[4-({2-Allyl-1-[6-(1-hydroxy-1-methylethyl)pyridin-2-yl]-3-oxo-2,3-dihydro-1H-pyrazolo[3,4-d]pyrimidin-6-yl}amino)phenyl]piperazin-1-yl}methyl)-4-fluorobenzyl]-5-fluoroquinazoline-2,4(1H,3H)-dione] | 100 to 1000 nM
10 | Cn1c2nc(Nc3ccc(N4CCC(c5nc6cccc(C(N)=O)c6[nH]5)CC4)cc3)ncc2c(=O)n1-c1ccccn1 [Compound 91] | 10 to 100 nM
11 | C=CCn1c(=O)c2cnc(N3CCN(C(=O)c4cc(Cc5n[nH]c(=O)c6ccccc56)ccc4F)CC3)nc2n1-c1cccc(C(C)(C)O)n1 [Compound 2, 4-{3-[(4-{2-Allyl-1-[6-(1-hydroxy-1-methylethyl)pyridin-2-yl]-3-oxo-2,3-dihydro-1H-pyrazolo[3,4-d]pyrimidin-6-yl}piperazin-1-yl)carbonyl]-4-fluorobenzyl}phthalazin-1(2H)-one] | 10 to 100 nM
12 | Cn1c2nc(Nc3ccc(N4CCN(C(=O)c5cc(Cn6c(=O)[nH]c(=O)c7c(F)cccc76)ccc5F)CC4)cc3)ncc2c(=O)n1-c1ccccn1 [Compound 17, 5-Fluoro-1-{4-fluoro-3-[(4-{4-[(1-methyl-3-oxo-2-pyridin-2-yl-2,3-dihydro-1H-pyrazolo[3,4-d]pyrimidin-6-yl)amino]phenyl}piperazin-1-yl)carbonyl]benzyl}quinazoline-2,4(1H,3H)-dione] | < 10 nM
13 | C=CCn1c(=O)c2cnc(Nc3ccc(N4CCN(Cc5ccc(-c6[nH]c7cc(F)cc8c7c6CCNC8=O)cc5)CC4)cc3)nc2n1-c1ccccn1 [Compound 39, 2-[4-[[4-[4-[[2-Allyl-3-oxo-1-(2-pyridyl)pyrazolo[3,4-d]pyrimidin-6-yl]amino]phenyl]piperazin-1-yl]methyl]phenyl]-6-fluoro-3,10-diazatricyclo[6.4.1.04,13]trideca-1,4,6,8(13)-tetraen-9-one] | 10 to 100 nM
14 | C=CCn1c(=O)c2cnc(NCCNC(=O)c3cc(Cc4n[nH]c(=O)c5ccccc45)ccc3F)nc2n1-c1cccc(C(C)(C)O)n1 [Compound 6, N-[2-({2-Allyl-1-[6-(1-hydroxy-1-methylethyl)pyridin-2-yl]-3-oxo-2,3-dihydro-1H-pyrazolo[3,4-d]pyrimidin-6-yl}amino)ethyl]-2-fluoro-5-[(4-oxo-3,4-dihydrophthalazin-1-yl)methyl]benzamide] | 100 to 1000 nM

Continued, values first:

Row | EC50 | Compound
15 | < 10 nM | C=CCn1c(=O)c2cnc(N3CCN(Cc4ccc(-c5[nH]c6cc(F)cc7c6c5CCNC7=O)cc4)CC3)nc2n1-c1cccc(C(C)(C)O)n1 [Compound 44, 2-{4-[(4-{2-Allyl-1-[6-(1-hydroxy-1-methylethyl)pyridin-2-yl]-3-oxo-2,3-dihydro-1H-pyrazolo[3,4-d]pyrimidin-6-yl}piperazin-1-yl)methyl]phenyl}-8-fluoro-1,3,4,5-tetrahydro-6H-azepino[5,4,3-cd]indol-6-one]
16 | < 10 nM | C=CCn1c(=O)c2cnc(NC3CCN(Cc4ccc(-c5[nH]c6cc(F)cc7c6c5CCNC7=O)cc4)CC3)nc2n1-c1cccc(C(C)(C)O)n1 [Compound 47, 2-(4-{[4-({2-Allyl-1-[6-(1-hydroxy-1-methylethyl)pyridin-2-yl]-3-oxo-2,3-dihydro-1H-pyrazolo[3,4-d]pyrimidin-6-yl}amino)piperidin-1-yl]methyl}phenyl)-8-fluoro-1,3,4,5-tetrahydro-6H-azepino[5,4,3-cd]indol-6-one]
17 | < 10 nM | C=CCn1c(=O)c2cnc(Nc3ccc(N4CCN(C(=O)c5cc(Cn6c(=O)[nH]c(=O)c7c(F)cccc76)ccc5F)CC4)cc3)nc2n1-c1ccccn1 [Compound 28, 1-{3-[(4-{4-[(2-Allyl-3-oxo-1-pyridin-2-yl-2,3-dihydro-1H-pyrazolo[3,4-d]pyrimidin-6-yl)amino]phenyl}piperazin-1-yl)carbonyl]-4-fluorobenzyl}-5-fluoroquinazoline-2,4(1H,3H)-dione]
18 | < 10 nM | Cn1c(=O)c2cnc(Nc3ccc(N4CCN(C(=O)c5cc(Cc6n[nH]c(=O)c7ccccc67)ccc5F)CC4)cc3)nc2n1-c1cccc(C(C)(C)O)n1 [Compound 7, 4-[4-Fluoro-3-({4-[4-({1-[6-(1-hydroxy-1-methylethyl)pyridin-2-yl]-2-methyl-3-oxo-2,3-dihydro-1H-pyrazolo[3,4-d]pyrimidin-6-yl}amino)phenyl]piperazin-1-yl}carbonyl)benzyl]phthalazin-1(2H)-one]
19 | < 10 nM | Cn1c2nc(Nc3ccc(N4CCN(C(=O)c5cc(Cc6n[nH]c(=O)c7ccccc67)ccc5F)CC4)cc3)ncc2c(=O)n1-c1ccccn1 [Compound 12, 4-{4-Fluoro-3-[(4-{4-[(1-methyl-3-oxo-2-pyridin-2-yl-2,3-dihydro-1H-pyrazolo[3,4-d]pyrimidin-6-yl)amino]phenyl}piperazin-1-yl)carbonyl]benzyl}phthalazin-1(2H)-one]
